In patent US5849326A, “Method for treating neuronal diseases via administration of 2-acylaminopropanol derivatives” (Seikagaku Corporation, priority 1993, dated 1998):
Where a chain is given by its changes, count along the chain named. One block for each compound: values may come before it.

What was measured:
[1] = tested on: acyl-CoA: sphingosine N-acyltransferase; assay: Enzyme activity in treated cerebral cortex culture: acyl-CoA: sphingosine N-acyltransferase; assay type: cell-based, rat; conditions: culture treated with 15 μM for 40 hours
Procedure: (§1) After the mixture was cultured for 40 hours, the resulting culture was harvested and pulverized in a homogenized buffer (50 mM Hepes, 0.32M sucrose) by using a chip type sonicator to prepare an enzyme source.
0.25 mM sphingosine and 0.45 mM ^14 C palmitoyl CoA (8.3×10^5cpm) were reacted in the presence of ATP (adenosine 5'-triphosphate). After ceramide which was a reaction product was subjected to solvent extraction, the extract was concentrated and evaporated to dryness, and its radioactivity was counted.

neurites = conditions: J. Biochem., vol. 110, pp. 96-103, 1991; cited from earlier work
[2] = target: T1, glucosylceramide biosynthesizing enzyme (Mus musculus, UniProt O88693); conditions: J. Lipid. Res., vol. 28, pp. 565-571, 1987; cited from earlier work
T1 sequence (O88693 1-394): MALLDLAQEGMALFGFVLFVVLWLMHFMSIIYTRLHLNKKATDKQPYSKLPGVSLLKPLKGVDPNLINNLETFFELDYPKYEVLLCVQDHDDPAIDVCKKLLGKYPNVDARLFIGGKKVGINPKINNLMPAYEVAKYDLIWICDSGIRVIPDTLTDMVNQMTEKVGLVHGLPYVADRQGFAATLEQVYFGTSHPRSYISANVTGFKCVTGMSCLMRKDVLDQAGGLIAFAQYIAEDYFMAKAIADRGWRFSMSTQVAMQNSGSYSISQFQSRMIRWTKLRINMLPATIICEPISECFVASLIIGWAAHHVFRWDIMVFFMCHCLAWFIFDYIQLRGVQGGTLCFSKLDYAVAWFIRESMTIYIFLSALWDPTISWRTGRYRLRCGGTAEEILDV

[3] = tested on: serine palmitoyltransferase; assay: Enzyme activity in treated cerebral cortex culture: serine palmitoyltransferase; assay type: cell-based, rat; conditions: culture treated with 15 μM for 40 hours
Procedure: as §1
1.5 mM palmitoyl CoA (coenzyme A) and 0.1 mM ^14 C serine (8.3×10^5 cpm) were reacted in the presence of 0.5 mM pyridoxalphosphoric acid. After 3-keto-sphingosine which was a reaction product was extracted, the extract was concentrated and evaporated to dryness, and its radioactivity was counted.

[4] = target: T2, GlcCer (glucosylceramide) synthase (Rattus norvegicus, UniProt Q9R0E0); assay: Enzyme activity in treated cerebral cortex culture: GlcCer synthase; assay type: cell-based; conditions: culture treated with 15 μM for 40 hours
T2 construct: primary culture of cerebral cortex tissue specimens of Wister albino rats; endogenous in cells; host or cells: primary culture of rat (Wistar) cerebral cortex, sonicated after 40 h with compound
T2 sequence (Q9R0E0 1-394): T1 sequence (O88693 1-394) with D96E, K164R, R249K, T377A
Procedure: as §1
After ^3 H-GlcCer which was a reaction product was extracted with t-butyl methyl ether, the extract was concentrated and evaporated to dryness, and its radioactivity was measured.

GM3 synthase = assay: Enzyme activity in treated cerebral cortex culture: GM3 synthase; assay type: cell-based, rat; conditions: culture treated with 15 μM for 40 hours
Procedure: as §1
After the mixture containing a reaction product was developed by a reverse phase thin layer plate, a portion corresponding to the reaction product was scratched off, and its radioactivity was counted.

[5] = tested on: LacCer (lactosylceramide) synthase; assay: Enzyme activity in treated cerebral cortex culture: LacCer synthase; assay type: cell-based, rat; conditions: culture treated with 15 μM for 40 hours
Procedure: as §1
GlcCer as an acceptor substrate was reacted with 0.315mM UDP (uridine diphosphate)-^3 H galactose (2.7×10^8 cpm) as a donor substrate. After the mixture containing ^3 H-LacCer which was a reaction product was developed by a silica gel thin layer plate, a portion corresponding to the reaction product was scratched off, and its radioactivity was counted.

[6] = tested on: rat cerebral cortex neurocytes; assay: Synapse formation measured as frequency of intracellular Ca2+ fluctuation; assay type: cell-based; conditions: FIG. 4
Text: Further, as a method of measuring synapse formation relatively simply and easily, there has been developed a multipoint observation system of Ca^2+ in neurocytes using Fura-2, and it has been confirmed that the number of synapse formation is in direct proportion to frequency of intracellular Ca^2+ fluctuation in synchronization therewith (Br. J. Pharmacol., 89, 191-198, 1986; Neurosci. Lett., 78, 69-74, 1987). We investigated influences of L-threo-FDMP and D-threo-PDMP exerted on synapse formation between rat cerebral cortex neurocytes by using this method, and the results are shown below.

GD3 synthase = assay: Enzyme activity in treated cerebral cortex culture: GD3 synthase; assay type: cell-based, rat; conditions: culture treated with 15 μM for 40 hours
Procedure: as §1
GM3 as an acceptor substrate was reacted with 30 mM CMP-^14 C sialic acid (2.88×10^6 cpm) as a donor substrate. After the mixture containing a reaction product was developed by a reverse phase thin layer plate, a portion corresponding to the reaction product was scratched off, and its radioactivity was counted.

GSL = conditions: J. Lipid. Res., vol. 28, pp. 565-571, 1987; cited from earlier work
explants = assay: Neurite-extending activity in explants (Example 6); assay type: cell-based; conditions: 5 μM to 15 μM, cultured for 40 hours, FIG. 5
Procedure: 1.6×10^5 cells/well of explants were sowed in a plate with 24 wells containing a DMEM medium. […] After the mixture was cultured for 40 hours, the resulting culture was fixed and then dyed with Coomassie, and nervous fibers extended to have a length which was longer than a diameter of […] were counted.

[7] = tested on: primary cultured rat cerebral neurocytes; assay: Ganglioside content (ganglioside-binding sialic acid) of primary cultured neurocytes; assay type: cell-based
Procedure: Rat fetuses at the 18th day of pregnancy were taken out, and forebrain base portions of the fetuses were extracted aseptically and cut into small pieces by scissors. After the pieces were treated with papain (in a phosphate buffer containing 0.02% L-cysteine containing 180 U papain, 0.02% bovine serum albumin and 0.5% glucose, pH 7.4, at 37° C. for 30 minutes), they were washed with a mixed solution (DF medium) of 1:1 of a Dulbecco modified Eagle's medium and a Ham's F12 medium and suspended in a DF medium containing 5% bovine fetal serum and 5% equine serum. This neurocyte suspension was charged into a culture plate with 24 wells (Falcon, Primaria) in an amount of 1×10^6 cells/well. […] After completion of the culture, the cells in the respective wells were washed with a phosphate buffer and recovered by rubber policeman. Further, a ganglioside fraction was extracted by adding chloroform/methanol/water (1:2:0.8) and shaking the mixture for 5 minutes. […] The no addition group (control) which was defined as 100% was compared with the test groups, and the results are shown in Table 1.

ICR mice = assay: General toxicity, continuous 10-day intraperitoneal administration; assay type: in vivo; conditions: 100 mg/kg/day intraperitoneally for 10 days
[8] = tested on: rats with spacial recognition disorder caused by repeated cerebral ischemia; assay: Maze radiated in 8 directions after repeated cerebral ischemia (Example 9); assay type: in vivo; conditions: 40 mg/kg i.p. twice a day for 6 days
Procedure: Wister albino male rats (weight: 250 to 280 g) were used, and training of a task of a maze which was radiated in 8 directions was conducted once a day to make the rats acquire spacial recognition. The rats which had acquired spacial recognition were subjected to cauterization of vertebral arteries and operation of peeling common carotid arteries according to the method of Pulsinelli, Brierly, et al. (Stroke, vol. 10, p. 267, 1979). […] The ischemia treatment was carried out by repeating ischemia twice, i.e., ligating common carotid arteries for 10 minutes by using clips without anesthesia and further ligating them for 10 minutes after 1 hour from restarting of blood flow. Retention trial was carried out one week after the ischemia treatment, and the results were represented by the number of correct choices among first 8 choices, whether all of 8 baits were taken or not, or the number of errors within an observation period a maximum of which was 10 minutes. Further, a pharmaceutical effect was evaluated by 3 ranks, i.e., remarkably effective (showing that the number of correct choices is 7 or more and the number of errors is 1 or less), effective (showing that the number of correct choices is 7 or more and the number of errors is 2 or 3) and ineffective (showing that the number of errors is 4 or more), and represented as an improvement rate thereof.
In the above experiment, examined was influence of continuous administration of 40 mg/kg of PDMP (i.p.) twice a day for 6 days started after 24 hours from the ischemia treatment, which was exerted on the spacial recognition disorder one week after the repeated cerebral ischemia, in the task of the maze which was radiated in 8 directions using the rats.

[9] = started 24 hours after ischemia, retention trial one week after ischemia, FIG. 7

Accelerating activity when enzyme activity of control is defined as 100%: Acyl-CoA: sphigosine N-acyltransferase [1]: no change in the activities was observed
Accelerating activity when enzyme activity of control is defined as 100%: Serine palmitoyltransferase [3]: no change in the activities was observed
Accelerating activity when enzyme activity of control is defined as 100%: GlcCer-synthase [4]: no change in the activities was observed
Accelerating activity when enzyme activity of control is defined as 100%: GM3 synthase (GM3 synthase): no change in the activities was observed
Accelerating activity when enzyme activity of control is defined as 100%: LacCer synthase [5]: no change in the activities was observed
Accelerating activity when enzyme activity of control is defined as 100%: GD3 synthase (GD3 synthase): no change in the activities was observed
ganglioside level as compared with that of the control ([7]; 20 μM, 3 days): decrease in the ganglioside level
SMILES: CCCCCCCCCC(=O)N[C@H](CN1CCOCC1)[C@H](O)c1ccccc1 [D-threo-PDMP, 1-phenyl-2-decanoylamino-3-morpholino-1-propanol]
extension of neurites (neurites): extension of neurites is suppressed
inhibition of glucosylceramide biosynthesizing enzyme [2]: specifically inhibits a glucosylceramide biosynthesizing enzyme
number of synapse formation (frequency of intracellular Ca2+ fluctuation) [6]: suppressedly acted on synapse formation
intracellular content of all GSL (GSL): extremely decreases an intracellular content of all GSL
effect on neurite extension (explants): moderate suppression of neurite extension
activity at 20 µM ([7]; Rattus norvegicus, 72 h, culture for 3 days, control defined as 100%): 63.4%

SMILES: CCCCCCCCCC(=O)N[C@H](CN1CCOCC1)[C@H](O)c1ccccc1 (relative stereo) [DL-threo-PDMP, 1-phenyl-2-decanoylamino-3-morpholino-1-propanol]
decrease in weight / decrease in neutrophile, acidocyte due to suppression of bone marrow (ICR mice; in Myrj 52): neither decrease in weight nor decrease in neutrophile, acidocyte, etc. due to suppression of bone marrow was observed
abnormality on observation for 3 months (ICR mice; observation for 3 months): no abnormality was observed

SMILES: CCCCCCCCCC(=O)NC(CN1CCOCC1)C(O)c1ccccc1 (stereo not drawn) [PDMP, 1-phenyl-2-decanoylamino-3-morpholino-1-propanol]
number of the correct choices versus vehicle group [8, 9]: increase of the number of the correct choices
number of the errors versus vehicle group [8, 9]: decrease of the number of the errors
improvement rate: rats in the remarkably effective rank ([8]; 4/8 rats, FIG. 8): 50%
